Results published in patent US8889638B2, “Stimulus-triggered prodrugs” (The Regents of the University of California, priority 2010, dated 2014).

Assays:
[1] = Cleavage of sulfonate ester PZBGs and proMMPi by H2O2 (UV-Vis, rate constant, HPLC); assay type: physicochemical; details: 50 μM in HEPES buffer, room temperature
Method: (§1) Absorption spectra of compounds were taken on a Perkin-Elmer Lambda 25 UV-Visible Spectrophotometer. To a 1.0 mL solution at 0.05 mM concentration of each compound in HEPES buffer (50 mM, pH 7.5) was added H2O2 (10 μL, 0.09M in HEPES) and absorption spectra were monitored over time at room temperature. Hydrolytic stability was measured by monitoring each sample in HEPES buffer over a 24 hour time period.
The pseudo-first order rate constant was calculated following literature procedure. To a 1.0 mL solution of compounds PZBG-1a, PZBG-1b, PZBG-1e, PZBG-5a, and PZBG-5b in HEPES buffer at 50 μM was added H2O2 to final concentrations of 150 μM, 250 μM, 500 μM, 750 μM, and 900 μM. Spectra were monitored over 15-30 min at room temperature with at least 50 spectra recorded at every concentration. The change in absorption at 298 nm for PZBG-1a and PZBG-1b were monitored, while the change in absorption at 288 nm was recorded for PZBG-1e, and 310 nm for PZBG-5a and PZBG-5b. The rate constant (kobs) was found from the linear slope of ln [(A−AZBG)/(Ao−AZBG)] vs. time where AZBG is the absorbance of a 50 μM sample of the ZBG or full-length inhibitor and AO is the initial absorbance of PZBG-1a, PZBG-1b, PZBG-1e, PZBG-5a, and PZBG-5b. The rate of conversion was determined from the slope of the line of kobs vs. [H2O2].
Analytical HPLC was performed on a HP Series 1050 system equipped with a Vydac® C18 reverse phase column (218 TP, 250×4.6 mm, 5 μm). […] Starting with 95% A and 5% B, an […] gradient was run for 15 min to a final solvent mixture of 5% A and 95% B, which was held for 5 min before ramping back down to 95% A and 5% B in 2 min and holding for an additional 4 min. Compounds ZBG-1a and PZBG-1a were prepared in HEPES buffer (50 mM, pH 7.5) at a concentration of 1 mM and retention times were determined. To evaluate cleavage by H2O2, a 1 mM solution of PZBG-1a in HEPES buffer was reacted with a 20-fold excess of H2O2 before analyzing under identical HPLC conditions as before.

[2] = Hydrolytic stability of sulfonate esters in HEPES buffer; assay type: physicochemical
Method: as §1

[3] = target: T1, MMP-12 (catalytic domain, human recombinant) (Homo sapiens, UniProt P39900); assay: MMP-12 fluorescence-based inhibition assay with and without H2O2 (sulfonate ester proMMPi); assay type: biochemical; set-up: MMP-12 (catalytic domain, human recombinant); purchased Enzo Life Sciences; details: 50 nM; for inhibition at 0.05 µM: 30 min of incubation
T1 sequence (P39900 106-263 limits assumed): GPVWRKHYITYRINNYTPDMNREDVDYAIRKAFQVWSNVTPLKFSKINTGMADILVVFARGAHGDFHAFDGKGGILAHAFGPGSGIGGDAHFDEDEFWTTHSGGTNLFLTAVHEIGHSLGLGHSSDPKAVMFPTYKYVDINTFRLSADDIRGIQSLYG
Method: MMP-12 (catalytic domain, human recombinant) was purchased from Enzo Life Sciences. The assays were carried out in a 96-well plate using a Bio-Tex Flx 800 plate reader. The activity of MMP-12 was evaluated after a 30 min incubation in the presence of H2O2 and proMMPi. The concentration of proMMPi used was selected to be close to the IC50 value of the parent full-length inhibitors, 1,2-HOPO-2 and PY-2[38]. In each well, 1 μL of proinhibitors PZBG-5a, PZGB-5b, and PZBG-6a and the inhibitors 1,2-HOPO-2 and PY-2 in DMSO (5 μM) were incubated for 30 min at 37° C. with 20 μL of MMP-12 (0.35 U/mL), 10 μL H2O2 (1 mM in HEPES buffer, pH 7.5), and MMP assay buffer (50 mM HEPES, 10 mM CaCl2, 0.10% Brij-35, pH 7.5) for a total volume of 99 μL. […] The reaction was initiated by the addition of 1 μL (400 μM) of the fluorescent substrate (Mca-Pro-Leu-Gly-Leu-Dpa-Ala-Arg-NH2 where Mca=(7-methoxycoumarin-4-yl)-acetyl and Dpa=N-3-(2,4-dinitrophenyl)-L-α-β-diaminopropionyl)) after the 30 minute incubation period and kinetic activity was measured every minute for 20 minutes with excitation and emission wavelengths at 335 nm and 405 nm, respectively. Enzyme activity with inhibitor was calculated with respect to the control experiment—no inhibitor present. Measurements were performed in duplicate in two independent experiments.

[4] = target: T2, MMP-9 (catalytic domain, human, recombinant) (Homo sapiens, UniProt P14780); assay: MMP-9 inhibition assay of boronic ester proinhibitors (IC50; activation with H2O2); assay type: biochemical; details: for inhibition of MMP-9 with no hydrogen peroxide present / inhibition at 10 µM: 10 μM; for inhibition at 10 µM: 1 h of activation, read-out: inhibition of MMP-9 after activation with 100 μM H2O2; for IC50: proinhibitors without H2O2, read-out: IC50 against MMP-9
T2 construct: MMP-9 (catalytic domain, human, recombinant); purchased BIOMOL International
T2 sequence (P14780 107-444 limits assumed): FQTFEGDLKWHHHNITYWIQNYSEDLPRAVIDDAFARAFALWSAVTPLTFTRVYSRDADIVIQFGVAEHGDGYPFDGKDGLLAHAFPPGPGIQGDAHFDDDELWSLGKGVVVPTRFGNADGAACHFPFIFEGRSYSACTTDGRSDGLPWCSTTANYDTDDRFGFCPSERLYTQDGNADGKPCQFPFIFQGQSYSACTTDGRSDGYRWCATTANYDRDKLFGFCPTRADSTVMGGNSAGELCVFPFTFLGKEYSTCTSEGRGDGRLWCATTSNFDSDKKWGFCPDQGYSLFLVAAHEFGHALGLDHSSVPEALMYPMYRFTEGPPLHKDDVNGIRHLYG
Method: (§2) MMP-9 (catalytic domain, human, recombinant) and MMP-12 (catalytic domain, human, recombinant) were purchased from Enzo Life Sciences. The assays were carried out in 96-well plates using a Bio-Tek Flx 800 plate reader. IC50 values were obtained for proinhibitors B17 and B18 against MMP-9 and MMP-12. Serial dilutions of the compounds dissolved in DMSO were incubated at 37° C. for 30 minutes with 20 μL of the appropriate MMP (0.45 U/mL for MMP-9 and 0.35 U/mL for MMP-12) in MMP assay buffer (50 mM HEPES, 10 mM CaCl2, 0.10% Brij-35, pH 7.5), for a total volume of 99 pt. The reaction was initiated by the addition of 1 μL (400 μM) of the fluorescent substrate (Mca-Pro-Leu-Gly-Leu-Dpa-Ala-Arg-NH2 where Mca=(7-methoxycoumarin-4-yl)-acetyl and Dpa=N-3-(2,4-dinitrophenyl)-L-α-β-diaminopropionyl)) and kinetic activity was measured every minute for 20 min with excitation and emission wavelengths at 335 nm and 405 nm, respectively. Measurements were performed in duplicate. The percent inhibition was plotted versus the inhibitor concentration. A linear fit of the data for each experiment gives the IC50 value of the inhibitor where y=50%.
(§3) MMP activity in the presence of H2O2 was evaluated with both MMP-9 and MMP-12 with 1 h of activation at concentrations close to their IC50 values. Using the calculated rate constants for the protected ZBGs B19 and B20, it was determined that 1 h of activation time for each proinhibitor with 100 μM H2O2 will provide enough 1,2-HOPO-2 or PY-2 to inhibit the MMPs at 50%. For example, for proinhibitor B17 with MMP-9, if the rate=k[B17][H2O2] and k=3.9 M^−1s^−1, [B17]=10 μM, and [H2O2]=100 μM, the rate of conversion would be 3.9×10^−9 M/s. Therefore, activation for 1 h would release 14 μM 1,2-HOPO-2, or enough inhibitor to provide approximately 50% inhibition of MMP-9 (IC50 value for 1,2-HOPO-2 against MMP-9 is ˜6 μM).
(§4) In each well, 1 μL of proinhibitors B17 and B18 and the inhibitors 1,2-HOPO-2 and PY-2 in DMSO (1 mM for MMP-9 or 5 μM for MMP-12) were incubated for 1 h at 37° C. with 10 μL H2O2 (1 mM in HEPES buffer, pH 7.5) in MMP assay buffer for a total volume of 79 pt. […] After activation of the proinhibitors, 20 μL of the appropriate MMP (0.45 U/mL for MMP-9 and 0.35 U/mL for MMP-12) was added and incubated for an additional 30 min. The reaction was initiated by the addition of 1 pt (400 μM) of the fluorescent substrate and kinetic activity was measured every minute for 20 min with excitation and emission wavelengths at 335 nm and 405 nm, respectively. Enzyme activity with inhibitor was calculated with respect to the control experiment (no inhibitor present). Measurements were performed in duplicate in two independent experiments.

[5] = target: T1, MMP-12 (catalytic domain, human recombinant); assay: MMP-12 inhibition assay of boronic ester proinhibitors (IC50; activation with H2O2); assay type: biochemical; set-up: MMP-12 (catalytic domain, human, recombinant); purchased Enzo Life Sciences; details: for inhibition of MMP-12 with no hydrogen peroxide present / inhibition at 0.05 µM: 50 nM; for inhibition at 0.05 µM: 1 h of activation, read-out: inhibition of MMP-12 after activation with 100 μM H2O2; for IC50 against MMP-12: proinhibitors without H2O2
Method: as §2, §3, §4

[6] = read-out: inhibition of MMP-12 after treatment with 100 μM H2O2
[7] = read-out: inhibition of MMP-12 before treatment with H2O2

## O=C(O)c1ccc(S(=O)(=O)On2c(C(=O)NCc3ccc(-c4ccccc4)cc3)cccc2=O)cc1 [PZBG-5b, 4-(((6-(([1,1′-Biphenyl]-4-ylmethyl)carbamoyl)-2-Oxopyridin-1(2H)yl)oxy)sulfonyl)benzoic acid]
[1]
  pseudo-first order rate constant with an excess of H2O2 (full-length proMMPi): 1.1 M⁻¹ s⁻¹
[2]; after 3 h
  hydrolysis in buffer alone: ~50%
[3]; [6]
  inhibition at 0.05 µM: ~50%
[3]; [7]
  inhibition at 0.05 µM: ~30%

## CC1(C)OB(c2ccc(COn3c(C(=O)NCc4ccc(-c5ccccc5)cc4)cccc3=O)cc2)OC1(C)C [Compound B17, N-([1,1′-biphenyl]-4-ylmethyl)-6-oxo-1-((4-(4,4,5,5-tetramethyl-1,3,2-dioxaborolan-2-yl)benzyl)oxy)-1,6-dihydropyridine-2-carboxamide]
[4]
  inhibition of MMP-9 with no hydrogen peroxide present: little inhibition
  inhibition at 10 µM: 50%
  IC50: > 1000 µM
[5]
  inhibition of MMP-12 with no hydrogen peroxide present: little inhibition
  inhibition at 0.05 µM: 50%
  IC50 against MMP-12: micromolar range

## O=C(NCc1ccc(-c2ccccc2)cc1)c1cccc(=O)n1OS(=O)(=O)c1ccccc1 [PZBG-5a, 6-(([1,1′-Biphenyl]-4-ylmethyl)carbamoyl)-2-Oxopyridin-1(2H)-yl benzenesulfonate]
[1]
  pseudo-first order rate constant with an excess of H2O2 (full-length proMMPi): 0.3 M⁻¹ s⁻¹
[2]; after 9 h
  hydrolysis in buffer alone: ~50%
[3]; [6]
  inhibition at 0.05 µM: ~30%
[3]; [7]
  inhibition at 0.05 µM: ~20%

## CC1(C)OB(c2ccc(COc3c(C(=O)NCc4ccc(-c5ccccc5)cc4)occc3=O)cc2)OC1(C)C [Compound B18, N-([1,1′-biphenyl]-4-ylmethyl)-4-oxo-3-((4-(4,4,5,5-tetramethyl-1,3,2-dioxaborolan-2-yl)benzyl)oxy)-4H-pyran-2-carboxamide]
[4]
  inhibition of MMP-9 with no hydrogen peroxide present: little inhibition
  inhibition at 10 µM: 50%
  IC50: > 1000 µM
[5]
  inhibition of MMP-12 with no hydrogen peroxide present: little inhibition
  inhibition at 0.05 µM: 50%
  IC50 against MMP-12: micromolar range

## O=C(NCc1ccc(-c2ccccc2)cc1)c1occc(=O)c1OS(=O)(=O)c1ccccc1 [PZBG-6a, 2-(([1,1′-Biphenyl]-4-ylmethyl)carbamoyl)-4-oxo-4H-pyran-3-yl benzenesulfonate]
[3]; negative control
  change in inhibitory activity against MMP-12 upon exposure to H2O2: no significant change in inhibitory activity

## O=c1ccccn1OS(=O)(=O)c1ccccc1 [PZBG-1a, 2-Oxopyridin-1(2H)-yl benzenesulfonate]
[1]
  pseudo-first order rate constant with an excess of H2O2: 0.7 M⁻¹ s⁻¹
[2]; in 6 h
  cleavage in buffer: ~50%

## Cc1ccc(S(=O)(=O)On2ccccc2=O)cc1 [PZBG-1b, 2-Oxopyridin-1(2H)-yl-4-methylbenzenesulfonate]
[1]
  pseudo-first order rate constant with an excess of H2O2: 0.3 M⁻¹ s⁻¹
[2]; in 24 h
  cleavage in buffer: ~30%
